Ends that are not written are not given here.
How the values were obtained:
[1] = tested on: BT20 cells; assay: Cell viability assay (WST-8); format: cell-based, human
Protocol: (§1) Cell viability was determined by WST-8 assay as described previously. Briefly, cells were seeded onto 96-well plates at 2000–3000 cells/well overnight. After incubating with the test peptides, the cell viability assay was carried out using Living Cell Count Reagent SF (Nacalai Tesque) according to the manufacturer’s protocol. Absorbance was measured at 450 nm using a 96-well microplate reader (GE Healthcare Bioscience, Piscataway, NJ).

[2] = tested on: BT20, MDA-MB-231, or MCF-10A cells; assay: Cellular uptake by flow cytometry; format: cell-based, human; conditions: BT20, MDA-MB-231, MCF-10A, Antp-TPR-TAMRA 10 μM, R11-Hsp70 or R11-Hsp70 scramble 10 μM, 30 min
Protocol: Flow cytometry assay was performed as described previously. […] The cell pellets were resuspended, and then flow cytometry analysis was performed by FACSCalibur (BD Bioscience, San Jose, CA, USA). Data were analyzed using CellQuest Software (BD Bioscience). Annexin V and PI staining was performed using Annexin V-Fluorescein Staining Kit (Wako Chemicals, Osaka, Japan) by multiparametric flow cytometry assay as described previously.

[3] = tested on: MDA-MB-231, BT20, BT474, and MDA-MB-361 cell lines; assay: Cell viability assay (WST-8), summary over four breast cancer cell lines; format: cell-based, human; conditions: MDA-MB-231, BT20, BT474, MDA-MB-361; summary of Table 1; read-out: IC50 values of Antp-TPR alone, range over four cell lines
Protocol: as §1

[4] = tested on: MDA-MB-361 cells; assay: Cell viability assay (WST-8); format: cell-based, human; conditions: 24 h, mean of three independent observations each performed in triplicate, read-out: IC50 of Antp-TPR
Protocol: as §1

[5] = tested on: normal mammary epithelial cells (MCF-10A); assay: Cell viability assay (WST-8); format: cell-based, human; conditions: 24 h, R11-Hsp70 10 μM where present, compared with cancer cell lines
Protocol: as §1

[6] = tested on: BT474 cells; assay: Cell viability assay (WST-8); format: cell-based, human; conditions: 24 h, mean of three independent observations each performed in triplicate, read-out: IC50 of Antp-TPR
Protocol: as §1

[7] = tested on: MDA-MB-231 cells; assay: Cell viability assay (WST-8); format: cell-based, human; conditions: 24 h
Protocol: as §1

[8] = tested on: Hsp70 / Hsp70 promoter in BT20 cells; assay: Hsp70 expression (western blotting) and Hsp70 promoter activation (reporter assay, LV200 single-cell imaging); format: cell-based, human
Protocol: Western blotting was carried out as described previously. Briefly, protein extracts were prepared from cells lysed with reporter lysis buffer (Promega, Madison, WI, USA), separated by SDS-PAGE and transferred to nitrocellulose filters using the iBlot system (Invitrogen, Carlsbad, CA, USA) according to the manufacturer’s protocol. Quenched membranes were probed with antibodies and analyzed using an enhanced reagent of Chemi-Lumi One Super (Nacalai Tesque) with a LAS-3000 LuminoImage analyzer (Fujifilm, Tokyo, Japan). Densitometric analysis was performed by Multi Gauge software V3.0 (Fujifilm) using the bands obtained from western blotting, in which actin as the loading control was used for normalizing of each bands.
A reporter assay was carried out as described previously. […] The relative activity of firefly luciferase to Renilla luciferase activity was determined in triplicate (means ± SD) using the Dual-Glo Luciferase Assay System (Promega).
Stably transfected BT20 cells with pHsp70Pro-Luc were prepared after transient transfection with Lipofectamine LTX according to the manufacturer’s protocol in a selective medium containing 200 μg/ml hygromycine B (Nacalai Tesque). Luminescence images at the single-cell level were obtained using the LV200 luminescence imaging system (Olympus) as described previously. […]

[9] = tested on: cancer cells; conditions: in the presence of 2-phenylethynesulfonamide; cited from earlier work
Source text: It was recently reported that VER155008 could bind to the ...

Compound: RRRRRRRRRRRGGGYCAYYSPRHKTTF [R11-Hsp70]
- effect on the cytotoxic activity of 17-AAG ([1]; R11-Hsp70 10 μM, 24 h): did not affect the cytotoxic activity of 17-AAG
- enhancement for cellular uptake of Antp-TPR [2]: higher than that of Antp-TPR by R11-Hsp70 scramble peptide

Compound: RQIKIWFQNRRMKWKKKAYARIGNSYFK [Antp-TPR]
- IC50 [3]: 26 to 34 µM
- IC50 [4]: 33.8 ± 2.6 µM
- cytotoxic activity toward normal mammary epithelial cells [5]: less than that of these peptides against cancer cell lines
- IC50 [6]: 34.1 ± 2.7 µM
- IC50 ([1]; 24 h, WST-8, mean of three independent observations each performed in triplicate, read-out: IC50 of Antp-TPR): 26.1 ± 3 µM
- IC50 ([7]; WST-8, mean of three independent observations each performed in triplicate, read-out: IC50 of Antp-TPR): 31.2 ± 3 µM

Compound: N#Cc1ccc(COC[C@H]2O[C@@H](n3c(NCc4ccc(Cl)c(Cl)c4)nc4c(N)ncnc43)[C@H](O)[C@@H]2O)cc1 [VER155008, reference compound]
- effect on the cytotoxic activity of 17-AAG ([1]; 5 μM VER155008, WST-8): did not have any synergetic effect on the cytotoxic activity of 17-AAG
- effect on the cytotoxic activity of Antp-TPR ([1]; 5 μM VER155008, WST-8): cytotoxic activity of Antp-TPR toward cancer cells was increased

Compound: C=CCNC1=C2C[C@@H](C)C[C@H](OC)[C@H](O)[C@@H](C)/C=C(\C)[C@H](OC(N)=O)[C@@H](OC)/C=C\C=C(/C)C(=O)NC(=CC1=O)C2=O [17-AAG, 17-allylamino-demethoxygeldanamycin]
- activation of the Hsp70 promoter ([8]; BT20 cells with pHsp70Pro-Luc, Antp-TPR 20 μM, R11-Hsp70 10 μM, 17-AAG 0.5 μM, luminometer 18 h and LV200 single-cell imaging): induced activation at the single-cell level
- up-regulation of Hsp70 and the promoter activity of this protein ([8]; BT20 cells, 0.5 μM 17-AAG, 6 h or 18 h western blotting, promoter assay 18 h): induced both

Compound: RRRRRRRRRRRGGGTPTYRASCFYHYK [R11-Hsp70scramble]
- effect on the cytotoxic activity of Antp-TPR ([1]; R11-Hsp70scramble 10 μM, 24 h): no effective increase in the cytotoxic activity of Antp-TPR
- effect on the cytotoxic activity of Antp-TPR ([7]; R11-Hsp70scramble 10 μM): no effective increase in the cytotoxic activity of Antp-TPR

Compound: NS(=O)(=O)C#Cc1ccccc1 [2-phenylethynesulfonamide]
- effect on the cytotoxic activity of 17-AAG [9]: the cytotoxic activity of 17-AAG was increased
